Measurements taken from publication PMC6407917, “Identification of GSK3186899/DDD853651 as a Preclinical Development Candidate for the Treatment of Visceral Leishmaniasis” (Journal of Medicinal Chemistry, 2018).

Columns and labels:
Experiment in all cases: biochemical
Set-up in all cases: species or system HEK293/K-562/placenta mixed human extract; Kinobeads chemoproteomic competition binding, quantified by TMT LC-MS/MS, dose response up to 20 uM
ACVR1 = ACVR1 (Homo sapiens, UniProt Q04771)
ACVR1B = ACVR1B (Homo sapiens, UniProt P36896)
AURKA = AURKA (Homo sapiens, UniProt O14965)
BMP2K = BMP2K (Homo sapiens, UniProt Q9NSY1)
CSK = CSK (Homo sapiens, UniProt P41240)
ERN1 = ERN1 (Homo sapiens, UniProt O75460)
FN3KRP = FN3KRP (Homo sapiens, UniProt Q9HA64)
MAP4K2 = MAP4K2 (Homo sapiens, UniProt Q12851)
MAPK1 = MAPK1 (Homo sapiens, UniProt P28482)
NEK6 = NEK6 (Homo sapiens, UniProt Q9HC98)
PHKG2 = PHKG2 (Homo sapiens, UniProt P15735)
PIM2 = PIM2 (Homo sapiens, UniProt Q9P1W9)
PLK4 = PLK4 (Homo sapiens, UniProt O00444)
PRKCQ = PRKCQ (Homo sapiens, UniProt Q04759)
PRKDC = PRKDC (Homo sapiens, UniProt P78527)
PTK2 = PTK2 (Homo sapiens, UniProt Q05397)
STK17A = STK17A (Homo sapiens, UniProt Q9UEE5)
TGFBR1 = TGFBR1 (Homo sapiens, UniProt P36897)
TNIK = TNIK (Homo sapiens, UniProt Q9UKE5)
TP53RK = TP53RK (Homo sapiens, UniProt Q96S44)
ULK3 = ULK3 (Homo sapiens, UniProt Q6PHR2)

Measured: IC50

Sequence of BMP2K (Q9NSY1 whole entry): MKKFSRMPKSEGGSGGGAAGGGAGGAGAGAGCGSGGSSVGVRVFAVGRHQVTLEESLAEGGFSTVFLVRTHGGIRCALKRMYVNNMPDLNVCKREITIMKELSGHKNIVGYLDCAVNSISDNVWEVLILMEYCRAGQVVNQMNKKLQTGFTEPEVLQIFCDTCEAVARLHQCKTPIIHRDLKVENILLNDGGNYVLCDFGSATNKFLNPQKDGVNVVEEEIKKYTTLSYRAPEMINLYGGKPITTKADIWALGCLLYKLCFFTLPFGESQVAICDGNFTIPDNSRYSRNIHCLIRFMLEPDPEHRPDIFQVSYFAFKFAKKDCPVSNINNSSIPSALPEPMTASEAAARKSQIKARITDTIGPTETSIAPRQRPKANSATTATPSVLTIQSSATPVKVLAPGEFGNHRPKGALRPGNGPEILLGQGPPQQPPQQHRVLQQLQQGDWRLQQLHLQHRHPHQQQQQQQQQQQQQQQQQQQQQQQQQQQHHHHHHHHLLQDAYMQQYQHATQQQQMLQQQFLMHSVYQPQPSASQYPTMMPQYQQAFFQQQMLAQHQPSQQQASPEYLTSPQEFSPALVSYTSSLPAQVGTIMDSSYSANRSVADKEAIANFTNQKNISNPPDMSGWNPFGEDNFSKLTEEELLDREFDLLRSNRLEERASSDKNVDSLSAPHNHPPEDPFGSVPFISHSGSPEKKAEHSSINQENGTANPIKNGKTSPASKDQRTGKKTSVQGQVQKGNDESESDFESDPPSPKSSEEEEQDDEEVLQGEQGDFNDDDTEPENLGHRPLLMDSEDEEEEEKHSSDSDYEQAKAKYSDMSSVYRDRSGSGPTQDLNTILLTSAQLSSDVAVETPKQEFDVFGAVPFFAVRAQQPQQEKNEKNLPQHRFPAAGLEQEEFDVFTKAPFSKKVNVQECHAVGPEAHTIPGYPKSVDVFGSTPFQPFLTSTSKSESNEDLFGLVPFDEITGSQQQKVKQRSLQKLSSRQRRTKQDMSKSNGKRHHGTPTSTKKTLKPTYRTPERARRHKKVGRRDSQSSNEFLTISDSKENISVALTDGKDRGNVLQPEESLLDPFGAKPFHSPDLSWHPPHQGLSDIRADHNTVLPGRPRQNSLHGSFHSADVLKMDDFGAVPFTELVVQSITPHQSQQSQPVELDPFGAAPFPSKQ
Sequence of ACVR1 (Q04771 whole entry): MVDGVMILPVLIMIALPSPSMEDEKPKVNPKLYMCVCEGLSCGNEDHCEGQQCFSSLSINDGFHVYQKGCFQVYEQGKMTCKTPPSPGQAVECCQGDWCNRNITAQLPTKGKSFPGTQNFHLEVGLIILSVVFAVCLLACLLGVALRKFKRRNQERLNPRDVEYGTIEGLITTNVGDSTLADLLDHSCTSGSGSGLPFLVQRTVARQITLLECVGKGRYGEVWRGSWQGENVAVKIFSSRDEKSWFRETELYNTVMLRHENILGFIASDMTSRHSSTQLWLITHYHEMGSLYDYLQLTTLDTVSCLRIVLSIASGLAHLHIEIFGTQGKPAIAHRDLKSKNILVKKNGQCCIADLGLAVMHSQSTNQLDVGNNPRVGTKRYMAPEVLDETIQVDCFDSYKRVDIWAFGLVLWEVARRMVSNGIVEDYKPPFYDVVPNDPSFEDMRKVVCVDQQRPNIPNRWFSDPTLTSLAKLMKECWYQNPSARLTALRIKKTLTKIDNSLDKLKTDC
Sequence of PRKCQ (Q04759 whole entry): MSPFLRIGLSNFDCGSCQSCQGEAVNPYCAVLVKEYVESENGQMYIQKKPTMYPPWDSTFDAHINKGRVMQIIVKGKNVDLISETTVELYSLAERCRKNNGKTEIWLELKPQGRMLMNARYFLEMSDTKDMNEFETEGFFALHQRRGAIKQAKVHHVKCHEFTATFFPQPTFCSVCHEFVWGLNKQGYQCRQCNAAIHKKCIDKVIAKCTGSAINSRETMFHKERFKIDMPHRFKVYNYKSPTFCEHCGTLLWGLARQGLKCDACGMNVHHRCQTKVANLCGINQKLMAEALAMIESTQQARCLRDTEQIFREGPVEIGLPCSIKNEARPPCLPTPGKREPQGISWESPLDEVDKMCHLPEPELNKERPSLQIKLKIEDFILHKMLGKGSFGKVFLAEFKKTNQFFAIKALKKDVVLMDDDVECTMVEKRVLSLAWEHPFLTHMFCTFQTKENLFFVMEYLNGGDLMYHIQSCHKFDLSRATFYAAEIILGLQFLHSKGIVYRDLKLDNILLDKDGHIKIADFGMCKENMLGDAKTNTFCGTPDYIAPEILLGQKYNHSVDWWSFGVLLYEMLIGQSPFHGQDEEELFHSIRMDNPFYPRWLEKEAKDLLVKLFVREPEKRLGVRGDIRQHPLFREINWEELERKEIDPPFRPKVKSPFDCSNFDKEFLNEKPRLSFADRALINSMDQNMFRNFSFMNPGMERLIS
Sequence of FN3KRP (Q9HA64 whole entry): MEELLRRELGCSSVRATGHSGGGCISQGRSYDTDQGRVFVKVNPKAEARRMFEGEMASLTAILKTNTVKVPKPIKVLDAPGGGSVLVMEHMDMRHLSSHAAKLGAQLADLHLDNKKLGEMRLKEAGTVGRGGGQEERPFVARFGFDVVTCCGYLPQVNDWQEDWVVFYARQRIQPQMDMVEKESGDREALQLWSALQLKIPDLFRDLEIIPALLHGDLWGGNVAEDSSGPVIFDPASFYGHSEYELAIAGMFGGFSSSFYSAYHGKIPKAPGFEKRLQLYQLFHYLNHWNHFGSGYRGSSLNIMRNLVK
Sequence of PHKG2 (P15735 whole entry): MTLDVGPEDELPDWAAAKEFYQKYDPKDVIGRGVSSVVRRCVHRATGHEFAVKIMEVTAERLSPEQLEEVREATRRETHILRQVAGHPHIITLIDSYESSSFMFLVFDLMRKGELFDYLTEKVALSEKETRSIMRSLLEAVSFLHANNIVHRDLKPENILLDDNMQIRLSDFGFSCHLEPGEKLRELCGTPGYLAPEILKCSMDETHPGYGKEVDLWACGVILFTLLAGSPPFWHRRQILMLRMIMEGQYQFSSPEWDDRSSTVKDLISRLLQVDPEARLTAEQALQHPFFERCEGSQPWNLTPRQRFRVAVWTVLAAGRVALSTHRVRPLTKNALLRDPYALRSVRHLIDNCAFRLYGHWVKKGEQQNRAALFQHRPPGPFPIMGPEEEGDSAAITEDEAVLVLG
Sequence of TP53RK (Q96S44 whole entry): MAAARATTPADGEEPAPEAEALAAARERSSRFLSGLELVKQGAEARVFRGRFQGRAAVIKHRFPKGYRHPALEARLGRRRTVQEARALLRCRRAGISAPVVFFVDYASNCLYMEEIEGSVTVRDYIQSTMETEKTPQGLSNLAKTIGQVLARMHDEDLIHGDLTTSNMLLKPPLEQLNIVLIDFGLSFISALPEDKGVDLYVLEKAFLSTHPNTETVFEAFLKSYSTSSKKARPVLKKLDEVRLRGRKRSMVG
Sequence of PIM2 (Q9P1W9 whole entry): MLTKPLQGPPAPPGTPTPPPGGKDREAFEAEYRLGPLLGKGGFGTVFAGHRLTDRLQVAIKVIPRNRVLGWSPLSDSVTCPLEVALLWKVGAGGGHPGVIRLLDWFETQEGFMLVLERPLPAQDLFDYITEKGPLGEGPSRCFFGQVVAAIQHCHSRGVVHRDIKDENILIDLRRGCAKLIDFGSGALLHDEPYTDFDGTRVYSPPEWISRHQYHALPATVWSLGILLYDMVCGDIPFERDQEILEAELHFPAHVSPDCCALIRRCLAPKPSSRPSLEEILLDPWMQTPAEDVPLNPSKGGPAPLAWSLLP
Sequence of ACVR1B (P36896 whole entry): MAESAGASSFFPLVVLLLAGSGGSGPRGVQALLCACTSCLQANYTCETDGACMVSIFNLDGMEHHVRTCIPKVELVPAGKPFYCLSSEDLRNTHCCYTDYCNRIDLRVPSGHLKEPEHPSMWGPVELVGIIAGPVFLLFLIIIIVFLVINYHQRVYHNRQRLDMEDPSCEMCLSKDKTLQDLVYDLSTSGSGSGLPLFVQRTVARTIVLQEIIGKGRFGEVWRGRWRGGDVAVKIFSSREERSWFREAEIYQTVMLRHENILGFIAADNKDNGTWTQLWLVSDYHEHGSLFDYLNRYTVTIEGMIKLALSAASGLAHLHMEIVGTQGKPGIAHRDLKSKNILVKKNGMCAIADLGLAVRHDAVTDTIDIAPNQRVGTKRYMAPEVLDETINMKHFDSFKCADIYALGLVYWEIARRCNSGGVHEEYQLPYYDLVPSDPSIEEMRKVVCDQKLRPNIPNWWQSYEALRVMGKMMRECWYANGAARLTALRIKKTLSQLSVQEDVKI
Sequence of AURKA (O14965 whole entry): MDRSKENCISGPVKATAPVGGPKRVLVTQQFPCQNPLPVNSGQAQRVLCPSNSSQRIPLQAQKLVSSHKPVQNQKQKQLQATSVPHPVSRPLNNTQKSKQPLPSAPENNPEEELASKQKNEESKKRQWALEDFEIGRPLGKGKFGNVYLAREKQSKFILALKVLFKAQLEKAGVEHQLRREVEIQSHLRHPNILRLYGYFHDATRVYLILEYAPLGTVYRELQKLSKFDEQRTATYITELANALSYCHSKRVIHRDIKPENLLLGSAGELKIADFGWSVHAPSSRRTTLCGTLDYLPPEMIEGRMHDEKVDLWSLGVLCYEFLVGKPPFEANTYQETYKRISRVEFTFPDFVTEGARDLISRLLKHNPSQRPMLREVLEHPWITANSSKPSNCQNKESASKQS
Sequence of STK17A (Q9UEE5 whole entry): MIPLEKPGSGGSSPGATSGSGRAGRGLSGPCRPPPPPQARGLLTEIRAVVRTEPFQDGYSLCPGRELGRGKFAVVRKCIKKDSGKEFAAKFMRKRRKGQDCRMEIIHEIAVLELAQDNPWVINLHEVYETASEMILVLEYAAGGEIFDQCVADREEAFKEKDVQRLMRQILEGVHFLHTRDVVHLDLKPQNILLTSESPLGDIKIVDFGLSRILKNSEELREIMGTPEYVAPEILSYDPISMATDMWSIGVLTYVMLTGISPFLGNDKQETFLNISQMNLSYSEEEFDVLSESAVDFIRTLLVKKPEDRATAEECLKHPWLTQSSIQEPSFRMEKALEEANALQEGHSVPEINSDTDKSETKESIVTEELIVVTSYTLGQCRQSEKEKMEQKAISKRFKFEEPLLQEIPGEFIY

COc1nc(N[C@H]2CC[C@H](NS(=O)(=O)CC(C)C)CC2)nc2[nH]nc(N3CCOC[C@H]3C)c12 [compound 39, N-(trans-4-((4-Methoxy-3-((R)-3-methylmorpholino)-1H-pyrazolo[3,4-d]pyrimidin-6-yl)amino)cyclohexyl)-2-methylpropane-1-sulfonamide]
≥ 20 µM: all assays above
